Measured values published in ChEMBL document CHEMBL5665443, “Enzyme Inhibitor Single Concentration assay results for EUbOPEN Chemogenomics Library” (2024).

Assays:
[1] = molecular target: Methyl-CpG-binding domain protein 4 (Homo sapiens) (UniProt O95243); conditions: Hit No;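 also: MBD4 activity read as fluorescence at 594 nm from cleavage and release of a quenched duplex DNA oligonucleotide, with APE1 coupled to incise the strand and raise turnover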
[2] = molecular target: T1, Endonuclease III-like protein 1 (Homo sapiens) (UniProt P78549); conditions: Hit No;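 also: enzyme assay tracking NTHL1 cutting and release of a quenched double-stranded DNA oligo substrate, read as fluorescence at 594 nm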
T1 sequence (whole entry): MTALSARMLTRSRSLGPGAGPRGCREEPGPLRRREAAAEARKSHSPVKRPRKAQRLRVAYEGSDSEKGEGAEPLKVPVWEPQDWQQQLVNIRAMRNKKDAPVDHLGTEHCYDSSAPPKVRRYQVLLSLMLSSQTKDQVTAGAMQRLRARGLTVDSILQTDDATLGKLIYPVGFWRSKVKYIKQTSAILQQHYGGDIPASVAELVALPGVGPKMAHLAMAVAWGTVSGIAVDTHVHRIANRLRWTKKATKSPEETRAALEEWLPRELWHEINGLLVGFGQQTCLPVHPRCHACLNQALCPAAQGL

[3] = molecular target: N-glycosylase/DNA lyase (Homo sapiens) (UniProt O15527); conditions: Compound Concentration 10.0 uM, Hit No;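 also: OGG1 cleavage of a quenched duplex DNA oligonucleotide, coupled to APE1 for strand incision, read as fluorescence at 594 nm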
Sequence of N-glycosylase/DNA lyase (Homo sapiens) (O15527 whole entry): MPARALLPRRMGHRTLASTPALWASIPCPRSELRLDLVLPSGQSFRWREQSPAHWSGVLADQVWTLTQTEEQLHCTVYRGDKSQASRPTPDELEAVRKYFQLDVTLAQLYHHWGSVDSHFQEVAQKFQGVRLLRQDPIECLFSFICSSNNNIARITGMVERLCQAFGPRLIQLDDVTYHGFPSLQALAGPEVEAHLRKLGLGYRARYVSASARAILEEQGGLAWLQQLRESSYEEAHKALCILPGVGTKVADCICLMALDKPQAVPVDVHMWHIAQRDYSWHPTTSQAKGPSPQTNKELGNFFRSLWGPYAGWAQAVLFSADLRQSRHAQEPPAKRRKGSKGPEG
Description: Inhibition of OGG1 by quantifying inhibition of OGG1-mediated cleavage and dissociation of quenched duplex DNA oligonucleotides, measured as fluorescence at 594 nm. To generate a functional strand incision and increase turn-over this assay is coupled to APE1.

[4] = molecular target: T2, Single-strand selective monofunctional uracil DNA glycosylase (Homo sapiens) (UniProt Q53HV7); conditions: Hit No;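 also: enzymatic SMUG1 assay coupled with APE1, reading fluorescence at 594 nm released when a quenched double-stranded DNA oligonucleotide substrate is cleaved and separated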
T2 sequence (whole entry): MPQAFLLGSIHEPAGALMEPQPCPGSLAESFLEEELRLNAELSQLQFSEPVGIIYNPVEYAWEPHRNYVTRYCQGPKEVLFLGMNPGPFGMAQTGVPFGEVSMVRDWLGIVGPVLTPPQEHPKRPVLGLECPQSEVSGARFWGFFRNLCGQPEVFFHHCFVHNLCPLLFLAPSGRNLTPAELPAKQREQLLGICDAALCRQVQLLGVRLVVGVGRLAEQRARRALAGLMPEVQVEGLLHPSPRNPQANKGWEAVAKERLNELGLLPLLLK

[5] = molecular target: G/T mismatch-specific thymine DNA glycosylase (Homo sapiens) (UniProt Q13569); conditions: Hit No;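 also: human TDG cleavage of quenched duplex DNA oligonucleotides coupled to APE1, strand release read as fluorescence at 594 nm, inhibition of TDG activity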
Sequence of G/T mismatch-specific thymine DNA glycosylase (Homo sapiens) (Q13569 whole entry): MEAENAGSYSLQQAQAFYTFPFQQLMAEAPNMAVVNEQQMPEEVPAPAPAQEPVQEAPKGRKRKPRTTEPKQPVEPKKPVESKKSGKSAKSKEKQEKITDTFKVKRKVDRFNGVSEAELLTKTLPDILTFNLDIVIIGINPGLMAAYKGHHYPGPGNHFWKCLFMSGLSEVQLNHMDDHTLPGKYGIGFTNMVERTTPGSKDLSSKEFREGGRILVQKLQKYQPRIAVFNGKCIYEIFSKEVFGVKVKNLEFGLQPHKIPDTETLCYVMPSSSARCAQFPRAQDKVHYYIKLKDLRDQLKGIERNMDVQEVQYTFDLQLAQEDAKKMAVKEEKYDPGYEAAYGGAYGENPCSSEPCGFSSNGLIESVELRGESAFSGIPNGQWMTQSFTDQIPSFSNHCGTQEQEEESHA

[6] = molecular target: Uracil-DNA glycosylase (Homo sapiens) (UniProt P13051); conditions: Hit No;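 also: UNG excision on a quenched double-stranded DNA oligo probe, with APE1 added for strand incision and turnover, read as fluorescence at 594 nm as strands separate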
Sequence of Uracil-DNA glycosylase (Homo sapiens) (P13051 whole entry): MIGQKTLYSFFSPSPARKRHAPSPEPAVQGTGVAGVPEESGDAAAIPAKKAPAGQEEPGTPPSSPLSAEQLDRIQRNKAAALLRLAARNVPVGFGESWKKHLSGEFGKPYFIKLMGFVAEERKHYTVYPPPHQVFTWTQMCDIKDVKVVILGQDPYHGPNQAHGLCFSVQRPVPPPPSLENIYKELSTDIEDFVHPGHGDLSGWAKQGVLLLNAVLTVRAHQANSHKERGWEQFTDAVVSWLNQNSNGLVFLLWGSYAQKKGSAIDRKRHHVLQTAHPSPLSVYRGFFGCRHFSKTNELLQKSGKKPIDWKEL

[7] = molecular target: Endonuclease 8-like 1 (Homo sapiens) (UniProt Q96FI4); conditions: Hit No;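 also: fluorescence at 594 nm from quenched duplex DNA oligonucleotides released by NEIL1 cleavage and strand separation, reported as reduction of this enzyme activity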
Sequence of Endonuclease 8-like 1 (Homo sapiens) (Q96FI4 whole entry): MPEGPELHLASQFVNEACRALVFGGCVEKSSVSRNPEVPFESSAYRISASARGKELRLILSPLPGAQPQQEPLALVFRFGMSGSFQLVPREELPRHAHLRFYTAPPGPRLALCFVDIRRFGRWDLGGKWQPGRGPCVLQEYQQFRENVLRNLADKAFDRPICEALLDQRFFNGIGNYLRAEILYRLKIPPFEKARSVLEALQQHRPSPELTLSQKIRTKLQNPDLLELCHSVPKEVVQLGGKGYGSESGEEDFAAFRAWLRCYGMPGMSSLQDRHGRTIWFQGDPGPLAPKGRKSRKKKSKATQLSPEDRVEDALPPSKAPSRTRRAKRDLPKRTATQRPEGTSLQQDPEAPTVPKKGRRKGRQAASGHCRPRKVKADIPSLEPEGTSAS

[8] = molecular target: T3, Endonuclease 8-like 2 (Homo sapiens) (UniProt Q969S2); conditions: Compound Concentration 10.0 uM, Hit No;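 also: fluorescence at 594 nm reports NEIL2 cutting and release of a quenched double-stranded DNA oligo substrate, reduced signal read as inhibition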
T3 sequence (whole entry): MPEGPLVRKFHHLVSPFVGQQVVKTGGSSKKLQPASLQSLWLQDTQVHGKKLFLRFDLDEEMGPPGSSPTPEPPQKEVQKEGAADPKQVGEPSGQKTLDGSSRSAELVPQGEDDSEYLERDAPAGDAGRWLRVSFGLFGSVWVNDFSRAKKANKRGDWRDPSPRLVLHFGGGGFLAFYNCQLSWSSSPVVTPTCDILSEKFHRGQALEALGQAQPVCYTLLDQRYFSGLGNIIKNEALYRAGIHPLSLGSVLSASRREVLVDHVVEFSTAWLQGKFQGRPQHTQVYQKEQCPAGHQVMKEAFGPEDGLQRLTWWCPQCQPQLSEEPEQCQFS
Description: Inhibition of NEIL2 by quantifying inhibition of NEIL2-mediated cleavage and dissociation of quenched duplex DNA oligonucleotides, measured as fluorescence at 594 nm.

Sequence of Methyl-CpG-binding domain protein 4 (Homo sapiens) (O95243 whole entry, the tested form may be a part): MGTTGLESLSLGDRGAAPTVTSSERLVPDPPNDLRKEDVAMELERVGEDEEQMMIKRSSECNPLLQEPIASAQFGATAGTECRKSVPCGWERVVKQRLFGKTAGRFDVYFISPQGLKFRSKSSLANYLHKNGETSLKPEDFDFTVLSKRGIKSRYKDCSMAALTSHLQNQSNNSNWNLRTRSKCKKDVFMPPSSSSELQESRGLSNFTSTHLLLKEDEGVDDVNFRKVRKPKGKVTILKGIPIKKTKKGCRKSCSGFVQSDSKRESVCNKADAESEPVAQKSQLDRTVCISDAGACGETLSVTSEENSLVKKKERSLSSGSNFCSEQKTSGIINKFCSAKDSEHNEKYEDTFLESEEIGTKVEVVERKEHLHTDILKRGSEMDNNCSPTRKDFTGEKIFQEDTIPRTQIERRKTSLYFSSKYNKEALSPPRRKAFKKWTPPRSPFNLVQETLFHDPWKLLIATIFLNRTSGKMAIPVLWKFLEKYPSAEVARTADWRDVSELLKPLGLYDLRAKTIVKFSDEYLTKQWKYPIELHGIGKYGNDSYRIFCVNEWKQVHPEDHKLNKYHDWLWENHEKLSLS

Row | inhibition ([1]; Compound Concentration 10.0 uM) [%] | inhibition ([2]; Compound Concentration 10.0 uM) [%] | inhibition [3] [%] | inhibition ([4]; Compound Concentration 10.0 uM) [%] | inhibition ([5]; Compound Concentration 10.0 uM) [%] | inhibition ([6]; Compound Concentration 10.0 uM) [%] | inhibition ([7]; Compound Concentration 10.0 uM) [%] | inhibition [8] [%] | inhibition ([1]; Compound Concentration 1.0 uM) [%] | inhibition ([7]; Compound Concentration 1.0 uM) [%] | inhibition ([2]; Compound Concentration 1.0 uM) [%] | inhibition ([4]; Compound Concentration 1.0 uM) [%] | inhibition ([5]; Compound Concentration 1.0 uM) [%] | inhibition ([6]; Compound Concentration 1.0 uM) [%] | SMILES
1 | 54.7 | -5.89 | 6.57 | 6.69 | 19.8 | 0.535 |  |  |  |  |  |  |  |  | CSc1cccnc1N1CCN(Cc2nc3ccccc3[nH]2)CC1
2 | -1.5 | -8.98 |  | 13.1 | 42.6 | -1.77 | -1.18 | -5.69 |  |  |  |  |  |  | Cn1cc(-c2ccc3occ(-c4cccc(-c5ccncc5)c4)c3n2)cn1
3 | 60.9 | -4.57 |  | 22.8 | 52.5 | 7.8 | 5.16 | -4.83 |  |  |  |  |  |  | C[C@H](NC(=O)c1cnc2n1[C@](C)(Cc1ccc(C#N)cc1)C(=O)N2c1cc(Cl)c(F)c(Cl)c1)C(=O)NC1(c2ccccn2)CC1
4 | -5.19 | -6.19 |  | 12.4 | 36.7 | -0.0214 | -5.28 |  |  |  |  |  |  |  | CCOc1cc(N2CCC(O)CC2)ccc1Nc1ncc2c(n1)N(C1CCCC1)CCC(=O)N2C
5 | -5.04 | 30.3 |  | 0.325 | -1.73 | -4.36 | 3.71 |  |  |  |  |  |  |  | COc1ccc([C@@H]2Sc3ccccc3N(CCN(C)C)C(=O)[C@@H]2OC(C)=O)cc1
6 | -0.547 | 6.32 | -2.11 | 15.5 | 4.73 |  | 9.14 | -0.983 |  |  |  |  |  |  | COc1ccnc(N2CCC3(CCCN(Cc4c[nH]c5ccccc45)C3=O)CC2)n1
7 | 45.5 | -1.29 | 4.85 | 19.7 | 17.3 | 1.86 |  |  |  |  |  |  |  |  | CC(C)(C)OC(=O)N1CCCC1CNC1CCC(c2cc(F)ccc2F)(S(=O)(=O)c2ccc(Cl)cc2)CC1 (configuration not stated)
8 | 57.8 | -5.23 | 7.75 | 18.6 | 49.2 | 2.54 |  |  |  |  |  |  |  |  | O=C(O)[C@@H]1[C@@H](Cn2nnc3ccccc3c2=O)CC[C@H]1C(=O)c1ccc(OCCC2CCOCC2)cc1
9 | -3.74 | -9.8 | -3.42 | -2.99 | -5.83 |  | -4.8 | 7.25 |  |  |  |  |  |  | CNC[C@H](O)c1cccc(O)c1
10 |  | 7.05 | -2.15 | 4.86 | 5.99 | -8.6 | -0.649 | -7.72 |  |  |  |  |  |  | C[C@H]1[C@H]2CC[C@H]3[C@@H]4CC=C5C[C@@H](N(C)C)CC[C@]5(C)[C@H]4CC[C@]23CN1C
11 |  |  |  |  |  |  |  |  | 31.6 | 0.138 | -2 | 21.7 | 46.5 | 1.39 | CCOc1cn(-c2ccc(F)cc2C)nc1C(=O)Nc1ccc(Oc2ccnc3cc(OC)c(OC)cc23)c(F)c1
12 |  | 19.5 | 2.66 | -2.6 | 1.84 | -5.24 | 7.51 | 14.7 |  |  |  |  |  |  | COc1cc(OC)c(NC(=O)c2ccc(Cc3cc4c(cc3C)C(C)(C)CCC4(C)C)o2)c(OC)c1

Row | SMILES | inhibition ([1]; Compound Concentration 10.0 uM) [%] | inhibition ([2]; Compound Concentration 10.0 uM) [%] | inhibition [3] [%] | inhibition ([4]; Compound Concentration 10.0 uM) [%] | inhibition ([5]; Compound Concentration 10.0 uM) [%] | inhibition ([6]; Compound Concentration 10.0 uM) [%] | inhibition ([7]; Compound Concentration 10.0 uM) [%] | inhibition [8] [%] | inhibition ([1]; Compound Concentration 1.0 uM) [%] | inhibition ([7]; Compound Concentration 1.0 uM) [%] | inhibition ([2]; Compound Concentration 1.0 uM) [%] | inhibition ([4]; Compound Concentration 1.0 uM) [%] | inhibition ([5]; Compound Concentration 1.0 uM) [%] | inhibition ([6]; Compound Concentration 1.0 uM) [%]
13 | CCC1(C2=NCCN2)Cc2ccccc2O1 (configuration not stated) | 3.23 | 1.19 | -0.183 |  | 2.85 | -0.713 | -9.99 | -5.22 |  |  |  |  |  | 
14 | CC1=C2C[C@H]3[C@@H](CC=C4C[C@@H](O)CC[C@@]43C)[C@@H]2CC[C@]12O[C@@H]1C[C@H](C)CN[C@H]1[C@H]2C |  | -6.14 | -3.73 | 2.68 | 5.99 | -9.72 | -3.61 | 1.26 |  |  |  |  |  | 
